Data: the SangsterLogP compilation

Legend:
[1] = method code SF, from DOI: 10.1021/bk-1995-0606.ch013

SMILES | logP | logP [1]
OC1(Cn2cncn2)CCCC1Cc1ccc(F)cc1F (stereo not given) | 2.6 | –
CC1(C)CCC(Cc2ccc(Cl)c(O)c2)C1(O)Cn1cncn1 (stereo not given) | – | 3.16
CCC1CCC(Cc2ccc(Cl)cc2)C1(O)Cn1cncn1 (stereo not given) | – | 4.02
CC1(C)CCC(Cc2ccc(-c3ccccc3)cc2)C1(O)Cn1cncn1 (stereo not given) | – | 4.64
Cc1ccc(CC2CCC(C)(C)C2(O)Cn2cncn2)cc1 (stereo not given) | – | 3.43
CCC1CCC(Cc2ccc(Br)cc2)C1(O)Cn1cncn1 (stereo not given) | – | 4.18
CC1(C)CCC(Cc2ccc(Br)cc2)C1(O)Cn1cncn1 (stereo not given) | – | 3.99
OC1(Cn2cncn2)CCCC1Cc1ccc(-c2ccccc2)cc1 (stereo not given) | – | 3.92
CCCOC/C(=N\c1ccc(Cl)cc1C(F)(F)F)n1ccnc1 | – | 4.5
CCC1CCC(Cc2ccc(F)cc2)C1(O)Cn1cncn1 (stereo not given) | – | 3.3
OC1(Cn2cncn2)CCCC1Cc1ccc(C(F)(F)F)cc1 (stereo not given) | 3.07 | –
OC1(Cn2cncn2)CCCC1Cc1ccc(Cl)cc1Cl (stereo not given) | 3.87 | –
OC1(Cn2cncn2)CCCC1Cc1ccccc1 (stereo not given) | – | 2.26
OC1(Cn2cncn2)CCCC1Cc1ccc(F)c(F)c1 (stereo not given) | 2.51 | –
OC1(Cn2cncn2)CCCC1Cc1ccc(Br)cc1 (stereo not given) | – | 3.27
Cc1ccc(CC2CCCC2(O)Cn2cncn2)cc1 (stereo not given) | – | 2.71
CC1(C)CCC(Cc2ccc(Cl)cc2F)C1(O)Cn1cncn1 (stereo not given) | – | 3.99
OC1(Cn2cncn2)CCCC1Cc1ccc(Cl)cc1F (stereo not given) | 3.27 | –
OC1(Cn2cncn2)CCCC1Cc1ccc(Cl)cc1 (stereo not given) | 3.11 | –
OC1(Cn2cncn2)CCCC1Cc1ccccc1Cl (stereo not given) | 2.95 | –
OC1(Cn2cncn2)CCCC1Cc1c(F)cccc1F (stereo not given) | 2.6 | –
CC(C)(C)c1ccc(CC2CCCC2(O)Cn2cncn2)cc1 (stereo not given) | – | 3.97
OC1(Cn2cncn2)CCCC1Cc1c(F)c(F)c(F)c(F)c1F (stereo not given) | 3.16 | –
OC1(Cn2cncn2)CCCC1Cc1cccc(Cl)c1 (stereo not given) | 2.98 | –
N#Cc1ccc(CC2CCCC2(O)Cn2cncn2)cc1 (stereo not given) | 1.7 | –
CCC1CCC(Cc2ccc(-c3ccccc3)cc2)C1(O)Cn1cncn1 (stereo not given) | – | 4.83
CCC1CCC(Cc2ccc(C(C)(C)C)cc2)C1(O)Cn1cncn1 (stereo not given) | – | 4.88
CCC1CCC(Cc2ccc(Cl)cc2Cl)C1(O)Cn1cncn1 (stereo not given) | – | 4.78
OC1(Cn2cncn2)CCCC1Cc1cccc(C(F)(F)F)c1 (stereo not given) | 3.07 | –
OC1(Cn2cncn2)CCCC1Cc1ccc(F)cc1 (stereo not given) | 2.39 | –
